Assays:
[1] = target: Arachidonate 5-lipoxygenase (Cavia porcellus); assay: In vitro inhibitory activity against 5-lipoxygenase by reduction of LTB4 formed in guinea pig polymorphonuclear leukocytes (PMNs).
[2] = target: Arachidonate 5-lipoxygenase (Cavia porcellus); assay: In vitro inhibitory activity against 5-lipoxygenase by reduction of 5-hydroxyeicosatetraenoic acid (5-HETE) formed in guinea pig polymorphonuclear leukocytes (PMNs).
[3] = target: Thromboxane-A synthase (Homo sapiens) (UniProt P24557); assay: Inhibitory concentration against human platelet thromboxane synthetase
[4] = target: Arachidonate 5-lipoxygenase (Cavia porcellus); assay: In vitro inhibitory activity against 5-lipoxygenase by reduction of 5-hydroxyeicosatetraenoic acid (5-HETE) formed in guinea pig polymorphonuclear leukocytes (PMNs).; remark: listed apart in the source

Chain of Thromboxane-A synthase (Homo sapiens) (P24557 whole entry, looked up): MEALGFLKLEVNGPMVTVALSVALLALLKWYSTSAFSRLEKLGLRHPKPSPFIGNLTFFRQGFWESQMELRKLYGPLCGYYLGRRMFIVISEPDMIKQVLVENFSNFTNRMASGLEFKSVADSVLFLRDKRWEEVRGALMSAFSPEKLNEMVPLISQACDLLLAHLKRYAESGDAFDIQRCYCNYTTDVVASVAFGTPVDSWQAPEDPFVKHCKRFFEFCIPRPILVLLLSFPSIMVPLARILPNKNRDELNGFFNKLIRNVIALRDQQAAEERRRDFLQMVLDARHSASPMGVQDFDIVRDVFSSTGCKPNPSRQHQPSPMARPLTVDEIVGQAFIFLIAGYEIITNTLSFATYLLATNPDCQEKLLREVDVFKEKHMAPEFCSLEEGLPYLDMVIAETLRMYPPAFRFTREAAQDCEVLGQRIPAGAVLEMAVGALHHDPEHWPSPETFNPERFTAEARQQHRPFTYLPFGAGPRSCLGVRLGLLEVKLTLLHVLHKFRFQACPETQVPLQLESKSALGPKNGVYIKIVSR

IC50 [1] [nM] | IC50 [2] [nM] | IC50 [3] [nM] | IC50 [4] [nM] | Compound
160 | 130 |  |  | NC(=O)N(O)CC1=Cc2cc(OCCCc3ccccc3)ccc2OC1
 |  | > 20000 |  | CC(c1cc2ccccc2s1)N(O)C(N)=O (racemic) [Leutrol]
44 |  |  | 37 | C=CCNC(=O)N(O)CC1=Cc2cc(Oc3ccccc3)ccc2OC1 [N'-allyl-N-hydroxy-N-[(6-phenoxy-2H-chromen-3-yl)methyl]urea]
380 |  |  | 440 | NC(=O)N(O)CC1=Cc2cc(OCc3ccccc3)ccc2OC1 [N-(6-Benzyloxy-2H-chromen-3-ylmethyl)-hydroxylurea]
1390 |  |  | 1360 | NC(=O)N(O)CC1=Cc2cc(OCC3CCCCC3)ccc2OC1 [N-(6-Cyclohexylmethoxy-2H-chromen-3-ylmethyl)-hydroxylurea]
340 | 280 |  |  | CCCCCCOc1ccc2c(c1)C=C(CN(O)C(N)=O)CO2 [N-(6-Hexyloxy-2H-chromen-3-ylmethyl)-hydroxylurea]
490 | 430 |  |  | NC(=O)N(O)CC1=Cc2cc(OCc3ccc(C(F)(F)F)cc3)ccc2OC1 [N-[6-(4-Trifluoromethyl-benzyloxy)-2H-chromen-3-ylmethyl]-hydroxylurea]
440 | 310 |  |  | CC1(C)Oc2ccc(Oc3ccccc3)cc2C=C1CN(O)C(N)=O [N-[(2,2-dimethyl-6-phenyoxy-2H-chromen-3-yl)methyl]-N-hydroxyurea]
1400 |  |  | 1400 | NC(=O)N(O)CC1=Cc2cc(Br)ccc2OC1 [N-[(6-bromo-2H-chromen-3-yl)methyl]-N-hydroxyurea]
63 | 49 |  |  | CC(C)NC(=O)N(O)CC1=Cc2cc(Oc3ccccc3)ccc2OC1 [N-hydroxy-N'-isopropyl-N-[(6-phenoxy-2H-chromen-3-yl)methyl]urea]
87 | 120 |  |  | CC1Oc2ccc(Oc3ccccc3)cc2C=C1CN(O)C(N)=O (stereo not given) [N-hydroxy-N-[(2-methyl-6-phenyoxy-2H-chromen-3-yl)methyl]urea]
69 |  |  | 65 | CCCCNC(=O)N(O)CC1=Cc2cc(Oc3ccccc3)ccc2OC1 [N-hydroxy-N-[(6-phenoxy-2H-chromen-3-yl)methyl]-N'-butylurea]
200 | 180 |  |  | NC(=S)N(O)CC1=Cc2cc(Oc3ccccc3)ccc2OC1 [N-hydroxy-N-[(6-phenoxy-2H-chromen-3-yl)methyl]thiourea]
 |  | > 20000 |  | NC(=O)N(O)CC1=Cc2cc(Oc3ccccc3)ccc2OC1 [N-hydroxy-N-[(6-phenoxy-2H-chromen-3-yl)methyl]urea]
230 |  |  | 240 | NC(=O)N(O)CC1=Cc2cc(-c3ccccc3)ccc2OC1 [N-hydroxy-N-[(6-phenyl-2H-chromen-3-yl)methyl]urea]
870 | 880 |  |  | CCCC1Oc2ccc(Oc3ccccc3)cc2C=C1CN(O)C(N)=O (stereo not given) [N-hydroxy-N-[(6-phenyoxy-2-propyl-2H-chromen-3-yl)methyl]urea]
> 3000 | > 3000 |  |  | COc1ccc2c(c1)OCC(CN(O)C(N)=O)C2 (stereo not given) [N-hydroxy-N-[(7-methoxy-3,4-dihydro-2H-chromen-3-yl)methyl]urea]
 |  | > 20000 |  | CNC(=O)N(O)CC1=Cc2cc(Oc3ccc(F)cc3)ccc2OC1 [N-{[6-(4-fluorophenoxy)-2H-chromen-3-yl]methyl}-N-hydroxy-N'-methylurea]
74 |  |  | 68 | CCOC(=O)CNC(=O)N(O)CC1=Cc2cc(Oc3ccccc3)ccc2OC1 [ethyl [({hydroxy[(6-phenoxy-2H-chromen-3-yl)methyl]amino}carbonyl)amino]acetate]

Source: BindingDB's records for doi:10.1021/jm00075a013 (Ciba-Geigy, 1994)
